# Assay results as given in US10150757B2, “Quinazolinone derivatives as PARP inhibitors” (Janssen Pharmaceutica NV, priority 2004, dated 2018).
# Biological target: PARP-1 enzyme (Homo sapiens, UniProt P09874)
# Experiment: In vitro scintillation proximity assay (SPA) for PARP-1 inhibitory activity
# Assay type: biochemical
# Settings: [3H]-NAD+, biotinylated histones, nicked DNA; read-out: in vitro SPA assay PARP-1 pIC50 (converted)
# Description: In Vitro Scintillation Proximity Assay (SPA) for PARP-1 Inhibitory Activity
# Compounds of the present invention were tested in an in vitro assay based on SPA technology (proprietary to Amersham Pharmacia Biotech).
# In principle, the assay relies upon the well established SPA technology for the detection of poly(ADP-ribosyl)ation of biotinylated target proteins, i.e histones. This ribosylation is induced using nicked DNA activated PARP-1 enzyme and [^3H]-nicotinamide adenine dinucleotide ([^3H]-NAD^+) as ADP-ribosyl donor.
# As inducer of PARP-1 enzyme activity, nicked DNA was prepared. For this, 25 mg of DNA (supplier: Sigma) was dissolved in 25 ml DNAse buffer (10 mM Tris-HCl, pH 7.4; 0.5 mg/ml Bovine Serum Albumine (BSA); 5 mM MgCl2.6H2O and 1 mM KCl) to which 50 μl DNAse solution (1 mg/ml in 0.15M NaCl) was added. After an incubation of 90 min. at 37° C., the reaction was terminated by adding 1.45 g NaCl, followed by a further incubation at 58° C. for 15 min. The reaction mixture was cooled on ice and dialysed at 4° C. for respectively 1.5 and 2 hours against 1.5 l of 0.2M KCl, and twice against 1.5 l of 0.01M KCl for 1.5 and 2 h respectively. The mixture was aliquoted and stored at −20° C. Histones (1 mg/ml, type II-A, supplier: Sigma) were biotinylated using the biotinylation kit of Amersham and stored aliquoted at −20° C. A stock solution of 100 mg/ml SPA poly(vinyl toluene) (PVT) beads (supplier: Amersham) was made in PBS. A stock solution of [^3H]-NAD^+ was made by adding 120 μl of [^3H]-NAD^+ (0.1 mCi/ml, supplier: NEN) to 6 ml incubation buffer (50 mM Tris/HCl, pH 8; 0.2 mM DTT; 4 mM MgCl2). A solution of 4 mM NAD^+ (supplier: Roche) was made in incubation buffer (from a 100 mM stock solution in water stored at −20° C.). The PARP-1 enzyme was produced using art known techniques, i.e. cloning and expression of the protein starting from human liver cDNA. Information concerning the used protein sequence of the PARP-1 enzyme including literature references can be found in the Swiss-Prot database under primary accession number P09874. Biotinylated histones and PVT-SPA beads were mixed and pre-incubated for 30 min. at room temperature. PARP-1 enzyme (concentration was lot dependent) was mixed with the nicked DNA and the mixture was pre-incubated for 30 min. at 4° C. Equal parts of this histones/PVT-SPA beads solution and PARP-1 enzyme/DNA solution were mixed and 75 μl of this mixture together with 1 μl of compound in DMSO and 25 μl of [^3H]-NAD^+ was added per well into a 96-well microtiterplate. The final concentrations in the incubation mixture were 2 μg/ml for the biotinylated histones, 2 mg/ml for the PVT-SPA beads, 2 μg/ml for the nicked DNA and between 5-10 μg/ml for the PARP-1 enzyme. After incubation of the mixture for 15 min. at room temperature, the reaction was terminated by adding 100 μl of 4 mM NAD^+ in incubation buffer (final concentration 2 mM) and plates were mixed.
# The beads were allowed to sediment for at least 15 min. and plates transferred to a TopCountNXT™ (Packard) for scintillation counting, values were expressed as counts per minute (cpm). For each experiment, controls (containing PARP-1 enzyme and DMSO without compound), a blank incubation (containing DMSO but no PARP-1 enzyme or compound) and samples (containing PARP-1 enzyme and compound dissolved in DMSO) were run in parallel. All compounds tested were dissolved and eventually further diluted in DMSO. In first instance, compounds were tested at a concentration of 10^−5M. […] In each test, the blank value was subtracted from both the control and the sample values. The control sample represented maximal PARP-1 enzyme activity. For each sample, the amount of cpm was expressed as a percentage of the mean cpm value of the controls. […] Herein the effects of test compounds are expressed as pIC50 (the negative log value of the IC50-value).
# PARP-1 enzyme, sequence (P09874 whole entry): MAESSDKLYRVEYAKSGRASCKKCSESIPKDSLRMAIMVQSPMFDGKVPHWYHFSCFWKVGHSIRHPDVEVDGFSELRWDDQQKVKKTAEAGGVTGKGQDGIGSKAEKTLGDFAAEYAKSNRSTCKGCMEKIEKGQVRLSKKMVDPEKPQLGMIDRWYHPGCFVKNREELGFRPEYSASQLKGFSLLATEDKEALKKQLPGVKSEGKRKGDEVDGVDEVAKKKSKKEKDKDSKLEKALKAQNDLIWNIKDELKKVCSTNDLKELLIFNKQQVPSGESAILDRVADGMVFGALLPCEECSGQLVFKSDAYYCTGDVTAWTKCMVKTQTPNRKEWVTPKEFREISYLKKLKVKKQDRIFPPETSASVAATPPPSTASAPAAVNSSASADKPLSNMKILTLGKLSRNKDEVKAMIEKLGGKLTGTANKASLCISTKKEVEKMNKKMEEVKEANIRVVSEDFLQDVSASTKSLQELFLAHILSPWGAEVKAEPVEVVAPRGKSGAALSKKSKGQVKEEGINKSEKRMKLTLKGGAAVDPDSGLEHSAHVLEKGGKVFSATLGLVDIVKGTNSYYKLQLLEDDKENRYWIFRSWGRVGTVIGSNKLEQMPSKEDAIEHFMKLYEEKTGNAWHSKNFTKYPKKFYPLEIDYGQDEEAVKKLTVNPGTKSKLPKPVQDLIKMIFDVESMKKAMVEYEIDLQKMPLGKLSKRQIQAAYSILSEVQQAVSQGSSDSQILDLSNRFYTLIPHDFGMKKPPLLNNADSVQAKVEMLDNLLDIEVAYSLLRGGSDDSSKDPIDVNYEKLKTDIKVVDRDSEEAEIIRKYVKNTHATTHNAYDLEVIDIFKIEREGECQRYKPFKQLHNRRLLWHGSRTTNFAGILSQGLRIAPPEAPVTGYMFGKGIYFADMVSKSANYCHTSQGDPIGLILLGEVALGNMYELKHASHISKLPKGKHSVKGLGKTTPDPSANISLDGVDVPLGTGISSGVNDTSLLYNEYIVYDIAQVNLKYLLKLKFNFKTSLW
row,IC50,Compound
1,535 nM,CCc1cc2cc(CN3CCN(CCNc4nc5ccccc5c(=O)[nH]4)CC3)ccc2nc1OC [Compound 3]
2,841 nM,O=c1[nH]c(NCCCN2CCC(Nc3cccc4ccccc34)CC2)nc2ccccc12 [Compound 42]
3,424 nM,O=c1[nH]c(NCCN2CCN(c3nc4ccccc4c(=O)[nH]3)CC2)nc2ccccc12 [Compound 38]
4,7.76 nM,O=c1[nH]c(NCCN2CCN(c3n[nH]c4ccccc34)CC2)nc2ccc(Cl)cc12 [Compound 1]
5,675 nM,O=c1[nH]c(NCCCN2CCC(c3c[nH]c4ccccc34)CC2)nc2ccccc12 [Compound 20]
6,44.4 nM,O=c1[nH]c(NCCCN2CCN(c3n[nH]c4cc(F)ccc34)CC2)nc2ccccc12 [Compound 27]
7,687 nM,O=C(NC1CCN(CCCNc2nc3ccccc3c(=O)[nH]2)CC1)c1ccccc1 [Compound 23]
8,847 nM,CO[C@H]1CN(CCCNc2nc3ccccc3c(=O)[nH]2)CC[C@H]1NC(=O)c1cc(Cl)cc2c1OC(C)(C)C2 [Compound 18]
9,225 nM,Nc1c(Cl)cc(C(=O)NC2CCN(CCCNc3nc(O)c4ccccc4n3)CC2)c2c1CCO2 [Compound 45]
10,32.3 nM,O=c1[nH]c(NCCN2CCC(Nc3nc4ccccc4c(=O)[nH]3)CC2)nc2ccccc12 [Compound 30]
11,34.8 nM,O=c1[nH]c(NCCN2CCC(Nc3n[nH]c(=O)c4ccccc34)CC2)nc2ccccc12 [Compound 33]
12,10.8 nM,O=c1[nH]c(NCCN2CCC(c3n[nH]c4cc(F)ccc34)CC2)nc2ccc(Cl)cc12 [Compound 36]
13,29.3 nM,O=c1[nH]c(NCCN2CCN(c3n[nH]c4ccccc34)CC2)nc2cc(Cl)ccc12 [Compound 44]
14,9.93 nM,Cc1cccc2nc(NCCN3CCN(c4n[nH]c5ccccc45)CC3)[nH]c(=O)c12 [Compound 39]
15,190 nM,O=c1[nH]c(NCCCN2CCC(c3n[nH]c4cc(F)ccc34)CC2)nc2ccccc12 [Compound 25]
16,46.3 nM,O=c1[nH]c(NCCCN2CCN(c3n[nH]c4ccccc34)CC2)nc2ccccc12 [Compound 22]

row,IC50,Compound
1,12.4 nM,Cc1ccc2nc(NCCN3CCN(c4n[nH]c5ccccc45)CC3)[nH]c(=O)c2c1 [Compound 43]
2,592 nM,Nc1c(Cl)cc(C(=O)OCC2CCN(CCNc3nc4ccccc4c(=O)[nH]3)CC2)c2c1OCCO2 [Compound 7]
3,785 nM,O=c1[nH]c(NCCCN2CCN(c3nsc4ccccc34)CC2)nc2ccccc12 [Compound 24]
4,15.3 nM,Cc1ccc2nc(NCCN3CCC(c4n[nH]c5cc(F)ccc45)CC3)[nH]c(=O)c2c1 [Compound 37]
5,718 nM,CC1(C)Cc2c(N)c(Cl)cc(C(=O)NC3CCN(CCCNc4nc(O)c5ccccc5n4)CC3)c2O1 [Compound 4]
6,387 nM,CO[C@@H]1CN(CCCNc2nc(O)c3ccccc3n2)CC[C@@H]1NC(=O)c1cc(Cl)c(N)c2c1OCCC2 [Compound 6]
7,39.4 nM,O=c1[nH]c(NCCN2CCC(c3n[nH]c4cc(F)ccc34)CC2)nc2cc(Cl)ccc12 [Compound 31]
8,638 nM,CC1(C)Cc2c(N)c(Cl)cc(C(=O)NC3CCN(CCCCNc4nc(O)c5ccccc5n4)CC3)c2O1 [Compound 5]
9,231 nM,O=C(c1ccc(F)cc1)C1CCN(CCNc2nc3ccccc3c(=O)[nH]2)CC1 [Compound 46]
10,535 nM,CO[C@@H]1CN(CCCNc2nc(O)c3ccccc3n2)CCN1NC(=O)c1cc(Cl)c(N)c2c1OC(C)(C)C2 [Compound 8]
11,425 nM,O=c1[nH]c(NCCCN2CCC(c3noc4cc(F)ccc34)CC2)nc2ccccc12 [Compound 26]
12,25.5 nM,O=c1[nH]c(NCCN2CCC(c3n[nH]c4cc(F)ccc34)CC2)nc2ccccc12 [Compound 21]
13,785 nM,O=c1[nH]c(NCCCN2CCC(n3c(=O)[nH]c4ccccc43)CC2)nc2ccccc12 [Compound 29]
14,44.5 nM,O=c1[nH]c(NCCN2CCN(c3n[nH]c4cc(F)ccc34)CC2)nc2ccccc12 [Compound 41]
15,1490 nM,CCCCn1cc(C2CCN(CCCNc3nc4ccccc4c(=O)[nH]3)CC2)c2ccccc21 [Compound 28]
16,322 nM,O=c1nc(NCCCN2CCC(Nc3nccc4ccccc34)CC2)[nH]c2ccccc12 [Compound 40]

row,Compound,IC50
1,O=c1[nH]c(NCCCN2CCC(O)(c3ccc(Cl)cc3)CC2)nc2ccccc12 [Compound 2],133 nM
